Earlier results in US20220184159A1, “METHOD OF BOOSTING INNATE IMMUNITY” (UNIVERSITY OF THE SUNSHINE COAST, priority 2018, published 2022).

Legend:
[1] = administered in the feed, fish
immune system of fish = settings: carp, rainbow trout, turbot and Atlantic cod

For CN(C)[C@@H]1C(O)=C(C(N)=O)C(=O)[C@@]2(O)C(O)=C3C(=O)c4c(O)cccc4[C@@](C)(O)[C@H]3[C@H](O)[C@@H]12 [Oxytetracycline], the “ingested oxytetracycline excreted intact in the faeces” value [1] is listed as 70-80% and the “effect on the immune system of fish” value (immune system of fish) is listed as “immunosuppressive effects”.
